Assays:
Format in all cases: toxicity, cell-based
U2OS = assay: Incucyte cell viability with U2OS; details: human, 10 µM, compound concentration 10 uM
HEK-293T = assay: Incucyte cell viability with HEK293T; details: human, 10 µM, compound concentration 10 uM
Fibroblast = assay: Incucyte cell viability with human fibroblast; details: 10 µM, compound concentration 10 uM
[1] = 0 h, replicate number 1, timepoint 0 hours
[2] = 0 h, replicate number 2, timepoint 0 hours
[3] = 6 h, replicate number 1, timepoint 6 hours
[4] = 12 h, replicate number 1, timepoint 12 hours
[5] = 18 h, replicate number 1, timepoint 18 hours
[6] = 24 h, replicate number 1, timepoint 24 hours
[7] = 6 h, replicate number 2, timepoint 6 hours
[8] = 12 h, replicate number 2, timepoint 12 hours
[9] = 18 h, replicate number 2, timepoint 18 hours
[10] = 24 h, replicate number 2, timepoint 24 hours
Also: filed as whole numbers so only -1 and 0 and 1 occur.

| SMILES | Growth Rate (U2OS; [1]) | Growth Rate (U2OS; [2]) | Growth Rate (U2OS; [3]) | Growth Rate (U2OS; [4]) | Growth Rate (U2OS; [5]) | Growth Rate (U2OS; [6]) | Growth Rate (HEK-293T; [1]) | Growth Rate (HEK-293T; [2]) | Growth Rate (HEK-293T; [6]) | Growth Rate (HEK-293T; [10]) | Growth Rate (Fibroblast; [1]) | Growth Rate (Fibroblast; [3]) | Growth Rate (Fibroblast; [4]) | Growth Rate (Fibroblast; [5]) | Growth Rate (Fibroblast; [6]) | Growth Rate (U2OS; [8]) | Growth Rate (HEK-293T; [3]) | Growth Rate (HEK-293T; [4]) | Growth Rate (HEK-293T; [5]) | Growth Rate (Fibroblast; [9]) | other results |
| --- | --- | --- | --- | --- | --- | --- | --- | --- | --- | --- | --- | --- | --- | --- | --- | --- | --- | --- | --- | --- | --- |
| CCOc1cc(N2CCC(O)CC2)ccc1Nc1ncc2c(n1)N(C)c1ccccc1C(=O)N2C | 0 | 1 | 0 | 1 | 1 | 1 | 0 | 1 | 1 | 0 | 1 | 1 | 1 | 1 | 1 | – | – | – | – | – | Growth Rate (HEK-293T; [7]): 1; Growth Rate (HEK-293T; [8]): 1; Growth Rate (HEK-293T; [9]): 1; Growth Rate (Fibroblast; [7]): 0 |
| CS(=O)(=O)NC[C@H]1CC[C@H](Nc2nc3c(s2)CCSc2ccccc2-3)CC1 | 0 | – | 0 | 0 | 0 | 1 | – | 0 | 0 | – | 0 | 0 | 1 | 1 | 0 | 1 | 0 | 0 | 0 | – | – |
| CN(C)S(=O)(=O)c1ccc(NC(=S)N2CCC(C(O)(c3ccccc3)c3ccccc3)CC2)cc1 | – | 0 | 1 | 0 | 1 | 0 | – | 0 | 0 | – | 0 | 0 | 0 | 0 | 0 | – | 0 | 0 | 0 | 1 | Growth Rate (U2OS; [10]): 1; Growth Rate (Fibroblast; [10]): 1 |
| Cc1nc(C(=O)N2CCC[C@H]2Cc2nnc(-c3ccccc3)o2)c(-c2ccccc2F)s1 | – | – | 0 | 0 | 1 | 0 | – | 0 | 0 | – | 1 | 0 | 0 | 1 | 0 | – | 0 | 0 | 0 | – | Growth Rate (U2OS; [10]): 1; Growth Rate (Fibroblast; [10]): 1 |
| COc1ccc(Cn2ccc3ccc(C(=O)NO)cc32)cc1 | 0 | 1 | 0 | 1 | 1 | 0 | 0 | 1 | – | – | 0 | – | – | 1 | 1 | 0 | – | – | – | 0 | Growth Rate (Fibroblast; [7]): 1; Growth Rate (Fibroblast; [8]): 1 |
| COc1cc(-c2cn([C@H]3CCc4c(F)cccc4N(CC(F)(F)F)C3=O)nn2)ccc1-n1cnc(C)c1 | 0 | – | 0 | 0 | 0 | 0 | 0 | 1 | 1 | 0 | 0 | 0 | 1 | 1 | 1 | 1 | 0 | 0 | 1 | 0 | Growth Rate (U2OS; [7]): 1; Growth Rate (U2OS; [9]): 1; Growth Rate (U2OS; [10]): 1; Growth Rate (Fibroblast; [8]): 0; Growth Rate (Fibroblast; [10]): 0 |
| O=C(/C=C/N1C[C@H]2C[C@@H]1CN2c1ccccn1)c1ccccc1O | 0 | – | 0 | 1 | 0 | 0 | 0 | 1 | – | – | – | 1 | 1 | 1 | 1 | 0 | – | – | – | – | Growth Rate (Fibroblast; [2]): 0 |
| CCn1cc(-c2cccc(C(F)(F)F)c2)c2sc(C(=N)NC3CCS(=O)(=O)CC3)cc2c1=O | – | 0 | 1 | 0 | 0 | 0 | – | – | 0 | – | – | 0 | 0 | 0 | 0 | – | 0 | 0 | 0 | – | Growth Rate (U2OS; [9]): 1; Growth Rate (U2OS; [10]): 1; Growth Rate (Fibroblast; [10]): 1 |
| CCC(=O)N1CCOc2c(cc(-c3ccc(OC)c(OC)c3)cc2OC[C@H]2CCCN(C)C2)C1 | 0 | – | 0 | 1 | 1 | 1 | – | 1 | 0 | – | 0 | 0 | 1 | 1 | 1 | – | 0 | 0 | 0 | 0 | Growth Rate (HEK-293T; [9]): 1; Growth Rate (Fibroblast; [8]): 0; Growth Rate (Fibroblast; [10]): 0 |
| CNCCN1CCC(OCc2ccccc2)CC1 | – | 0 | 1 | 1 | 1 | 1 | 1 | 0 | 1 | – | – | 0 | 0 | 0 | 1 | – | – | – | 1 | – | Growth Rate (HEK-293T; [7]): 1; Growth Rate (HEK-293T; [8]): 1; Growth Rate (Fibroblast; [2]): 0; Growth Rate (Fibroblast; [7]): 1; Growth Rate (Fibroblast; [8]): 1 |
| Cl.Cl.c1ccc([C@@H]2C[C@H]2NC2CCNCC2)cc1 | 0 | 1 | – | 1 | 1 | 1 | – | 1 | 1 | – | 0 | – | – | – | 1 | – | 0 | 1 | – | 1 | Growth Rate (U2OS; [7]): 1; Growth Rate (Fibroblast; [8]): 1 |
| CCC(=O)Nc1cccc(Oc2nc(Nc3ccc(N4CCN(C)CC4)cc3OC)ncc2Cl)c1 | 0 | – | 0 | 0 | 0 | 0 | – | – | 0 | – | – | – | 0 | 0 | 0 | – | 0 | 0 | 0 | – | Growth Rate (U2OS; [7]): 1; Growth Rate (U2OS; [9]): 1 |
| Cc1cccc(-c2cnc3occ(-c4ccc(C(=O)O)c(C5CCCC5)c4)c3c2)c1 | 0 | – | 0 | 1 | 0 | 1 | 1 | 0 | 1 | – | – | 0 | 0 | 0 | 0 | 0 | – | – | 1 | – | Growth Rate (U2OS; [9]): 1; Growth Rate (Fibroblast; [2]): 1 |
| C[C@H]1CC(=O)Nc2cc(C(=O)NCCC3CC3)ccc2N1C(=O)N1CC2CC2C1 (stereo partly drawn) | 1 | – | 0 | 1 | 1 | 1 | 0 | 1 | 0 | 1 | 0 | 0 | 1 | 0 | 1 | – | – | – | 1 | – | Growth Rate (HEK-293T; [7]): 1; Growth Rate (HEK-293T; [8]): 0; Growth Rate (Fibroblast; [8]): 0; Growth Rate (Fibroblast; [10]): 0 |
| CN(C)C(=O)c1ccc(-c2cc(C(=O)N[C@@H]3CCc4ccccc43)no2)cc1O | 0 | – | 0 | 0 | 0 | 1 | 1 | – | 1 | – | 0 | 1 | 0 | 1 | 0 | 1 | – | – | – | – | Growth Rate (U2OS; [9]): 1; Growth Rate (HEK-293T; [7]): 0; Growth Rate (HEK-293T; [8]): 0; Growth Rate (Fibroblast; [10]): 1 |
| O=C(NCCCN1CCOC1=O)c1cnc(NCc2cc(Br)ccc2Br)nc1NC1CCCC1 | 0 | – | 1 | 1 | 0 | 1 | 0 | – | 1 | 0 | – | 0 | 0 | 0 | 0 | – | 1 | – | 1 | – | Growth Rate (HEK-293T; [8]): 1 |
| CC(C)S(=O)(=O)c1ccc2nccc(Nc3ccc4scnc4c3)c2c1 | 1 | 0 | 0 | 1 | 0 | 1 | – | – | 0 | – | – | 0 | 0 | 0 | 0 | – | 0 | 0 | 0 | – | Growth Rate (U2OS; [9]): 1; Growth Rate (Fibroblast; [2]): 0 |
| O=C(NCc1ccccc1)c1ccc(S(=O)(=O)NCc2ccccc2)cc1 | – | 1 | 0 | 1 | 0 | 1 | 0 | – | 0 | 1 | 0 | 0 | 0 | 1 | 0 | – | 0 | 1 | 1 | 0 | Growth Rate (U2OS; [10]): 0; Growth Rate (HEK-293T; [7]): 1; Growth Rate (Fibroblast; [7]): 1; Growth Rate (Fibroblast; [8]): 1 |
| O=C(O)c1ccc(-c2coc3ncc(-c4ccccc4)cc23)cc1Cl | – | 0 | 1 | 1 | 1 | 1 | 0 | 1 | 0 | – | – | 1 | 0 | 0 | 0 | – | 0 | 0 | 0 | – | Growth Rate (U2OS; [7]): 0; Growth Rate (HEK-293T; [7]): 1; Growth Rate (Fibroblast; [2]): 0; Growth Rate (Fibroblast; [7]): 0 |
| NC(=O)c1ccc(NC(=O)NCc2cccc(C(=O)Nc3ccc4c(c3)CNCC4)c2)cc1 | 0 | – | 0 | 1 | 1 | 1 | 0 | – | 0 | 1 | 0 | 0 | 0 | 1 | 1 | – | – | – | 1 | – | Growth Rate (Fibroblast; [7]): 1 |
| CN(C)[C@@H]1CCN(c2cc(-c3ccccc3)nc3ccnn23)C1 [(R)-ZINC-3573] | – | – | – | 1 | 0 | 1 | 0 | – | 1 | 0 | 0 | 0 | 1 | 1 | 1 | 0 | 1 | 1 | 1 | 0 | Growth Rate (U2OS; [7]): 0; Growth Rate (U2OS; [9]): 1 |
